Test results from patent US6716883B1, “Composition useful to treat periodontal disease” (priority 1998, dated 2004).

Experiments:
Assay type in all cases: cell-based
[1] = system: rat bone marrow cell line (RBMCL); test: APA in rat bone marrow cell line (RBMCL)
[2] = system: rat SBMC (stromal bone marrow cell) line; test: AP activity in rat stromal bone marrow cell (SBMC) line
Procedure: Cells for the rat SBMC model were obtained from Dr. Sandu Pitaru (Tel Aviv University, Israel) and maintained in T25 tissue culture flasks (Sarstedt, Newton, N.C., USA) in a medium composed of αMEM+RNA+DNA+antibiotic supplemented with 10% fetal calf serum, 10 mM β-glycerophosphate, 10^−8M dexamethasone, 50 μg/ml vitamin C and 3 ng/ml fibroblast growth factor. The media were changed every 48 hours and the cells subcultured when almost confluent (approximately every 72 hrs). Cells were grown for a period of 1-2 weeks to allow for formation of mineralized bone nodules.
SBMC cultures were assayed for AP activity using paranitrophenol-phosphate (pN-p) as the substrate as described above for CPO cultures. In some cases, AP activity was also measured using direct staining of SBMC cultures in 96 well plates as described previously (Tenenbaum et al., Anat Rec. 1995. 242(2):200-10). Mineralization in the SBMC cultures was determined using Alizarin Red staining in situ that was assessed with the Titertek spectrophotometer set at 525 nm.

[3] = system: chick periosteal osteogenesis (CPO) cultures; test: Newly synthesized 14C-labeled collagen type I in CPO cultures
Procedure: (§1) For the purposes of this investigation, the effects of a potent aryl hydrocarbon, TCDD (2,3,7,8-tetrachlorodibenzo-p-dioxin or dioxin) on the early events occurring during osteogenesis were determined. The CPO model traverses a number of phases of osteogenesis. Therefore, it was possible to design temporal or “window” experiments in order to determine the phases of osteogenesis that were sensitive to TCDD and/or resveratrol. […] All cultures were maintained for the entire 6-day period. The compounds were administered over four different temporal phases, as outlined below in the time-line diagram: a) days 0-6; b) days 0-2; c) days 2-4 or d) days 4-6 (Note: all cultures were stopped at 6 days). Results were compared to e) vehicle alone over days 0-6. [drawing 1]
Radiolabeled collagen was measured in CPO cultures incubated with ^14C-glycine (Amersham, 59 mCi/mMole) at a concentration of 10 μci/ml media in each group over days 4-6. The cultures were hydrolyzed in 0.1 ml of 0.1N HCl and vortexed. After 15 minutes, the supernatant was removed and saved in a 2 ml eppendorf tube. The culture was transferred to a 0.5 ml eppendorf tube containing 0.1 ml of pepsin (50 μg/ml in 0.1% glacial acetic acid) for further digestion of labeled collagen. These were maintained in a 15° C. water bath for 5 hours, vortexing the samples every hour. The supernatant was transferred to a new 0.5 ml eppendorf tube and was then lyophilized overnight. The amount of radiolabeled collagen was determined by gel electrophoresis as described hereunder. The lyophilized samples were reconstituted with 0.1 ml of a solution made of 70% sample buffer (10 mM Tris.HCl and 1 mM EDTA, pH 8.0) (Sigma-Aldrich Canada Ltd., Oakville, Canada), 2.5% SDS (Sigma), 5% β-mercaptoethanol (Sigma) and 0.01% bromophenol-blue (Sigma). […]
Fluorography was used to analyze the amount of newly synthesized ^14C-labeled collagen in each sample. […] The intensity of the resultant bands on the film was quantified using a laser densitometer to give a measure of the amount of newly synthesized collagen in each sample.

[4] = system: chick periosteal osteogenesis (CPO) cultures; test: RT-PCR mRNA levels of bone proteins (AP, BSP, collagen type I, OPN) in CPO cultures
Procedure: as §1
The isolation of total RNA from periosteal cultures to determine affect of TCDD on message levels of bone proteins was accomplished using the QIAGEN Rneasy® kit and QIAShredder® (Hilden, Germany) according to the manufacturer's instructions. Total RNA (2 μg) was reverse transcribed using SuperScript II™ RNase H^− Reverse Transcriptase (Gibco BRL, City Country). PCR reactions were performed in […] reactions at a cycle number ensuring a linear amplification profile (BSP, 5 min at 94° C., 30 cycles [of 20 sec at 94° C., 20 sec at 55° C., 20 sec at 72° C.]; Collagen 5 min at 94° C., 30 cycles [of 20 sec 94° C. 20 sec 58° C., 20 sec 72° C.]; AP 5 min at 94° C., 30 cycles [of 20 sec 94° C., 20 sec 59° C., 20 sec 72° C.]; OPN 5 min at 85° C., 5 min at 94° C., 25 cycles [20 sec at 94° C., 20 sec at 60° C., 20 sec at 72° C.] 7 min at 72° C.). The oligonucleotides for BSP (sense: 5′-[…]-3′; antisense: 5′-[…]-3′) AP (sense: 5′-[…]-3′; antisense: 5′-[…]-3′), Collagen (sense: 5′-[…]-3′; antisense: 5′-[…]-3′); OPN (sense 5′-[…]-3′; antisense 5′-[…]-3′) were synthesized by Life Technologies (Gibco BRL, Rockville, Md.). PCR products were electrophoresed on 1.5 (wt/vol) % agarose gels with 0.1 μg/ml ethidium bromide. The gels were visualized on an UV transilluminator and photographed using 667 Polaroid film. The inverse images of the photographs were analyzed by densitometry. All values were normalized for the internal control, β-actin.

[5] = resveratrol 4×10^−8M to 3×10^−5M with TCDD

## Clc1cc2c(cc1Cl)Oc1cc(Cl)c(Cl)cc1O2 [TCDD, 2,3,7,8-tetrachlorodibenzo-p-dioxin]
[1]; TCDD, 6 day cultures, in comparison to CPO and RBMC
  inhibition of osteogenic differentiation (APA): lower dose of TCDD was able to inhibit osteogenic differentiation
[2]; TCDD 1.1×10^−9M
  reduction in AP activity: 33%
[2]; TCDD 3.3×10^−9M and higher
  reduction in AP activity versus control: 33%
[2]; TCDD 3.3×10^−9M to 4.12×10^−11M
  dose dependence of reduction in AP activity: dose dependant
[2]; TCDD 4.12×10^−11M
  AP activity: not affected
[3]; 10^−9M TCDD alone, p>0.05
  decrease in newly synthesized collagen type I levels: about 30%
[4]; TCDD, p<0.05
  reduction in mRNA for BSP: ~4 fold
  reduction of mRNA levels for OPN: about 40%
  reduction of mRNA levels for type I collagen in comparison to control: 50%
  reduction of message levels for AP in comparison to control: about 50%

## Oc1ccc(C=Cc2cc(O)cc(O)c2)cc1 [resveratrol, 3,5,4′-trihydroxystilbene]
[1]; [5]
  APA in comparison to control: appeared to stimulate APA
  inhibition of TCDD-mediated inhibition of osteoblastic differentiation (APA): able to inhibit TCDD-mediated inhibition of osteoblastic differentiation
[2]; increasing concentration of resveratrol, TCDD 4.12×10^−11M
  effect on AP activity: had no effect
[2]; resveratrol 4×10^−8M to 1×10^−5M, TCDD 1.1×10^−9M
  abrogation of TCDD effect on AP activity: abrogated the effects of TCDD
[2]; resveratrol at various concentrations, TCDD 3.3×10^−9M and higher
  reversal of TCDD reduction in AP activity: not reversed
[3]; 10^−6M resveratrol alone, compared to vehicle
  newly synthesized collagen type I levels: no effect
[3]; co-treatment with TCDD and resveratrol, versus TCDD alone
  newly synthesized collagen type I level: not significantly different
[4]; TCDD with resveratrol
  reversal of TCDD inhibition of BSP mRNA: reversed completely
[4]; both TCDD and resveratrol
  mRNA levels for OPN: restored
[4]; both TCDD and resveratrol, versus control
  mRNA levels for Type I collagen: identical levels
[4]; resveratrol alone
  message for BSP: partially down-regulate
  message for collagen: partially down-regulate
